Assay results taken from patent US8993574B2, “Pyrrole antifungal agents” (F2G Ltd, priority 2008, dated 2015).

What was measured:
[1] = test system: Aspergillus and other filamentous fungi; assay: Activity in vitro against Aspergillus and other filamentous fungi; assay type: cell-based
Aspergillus terreus AT49 = assay: MIC, RPMI medium; assay type: cell-based; conditions: Aspergillus terreus, AT49, MIC banded into grades, read-out: MIC grade, A. terreus 49
How it was run: (§1)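 MIC taken as lowest drug level inhibiting growth by >80% relative to drug-free wells, read as OD at 485 nm after 24-48 h at 35° C. Organisms at 1−2×10^4 cfu/mL in RPMI (2% glucose, 0.135 M MOPS, pH 7.0) exposed to doubling dilutions spanning 50-0.05 mg/L.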

Aspergillus niger = assay: MIC, RPMI medium; assay type: cell-based; conditions: Aspergillus niger, MIC banded into grades, read-out: MIC grade, A. niger
How it was run: as §1

Aspergillus flavus = assay: MIC, RPMI medium; assay type: cell-based; conditions: Aspergillus flavus, MIC banded into grades, read-out: MIC grade, A. flavus
How it was run: as §1

[2] = test system: Aspergillus fumigatus AF293; assay: MIC, RPMI medium; assay type: cell-based; conditions: Aspergillus fumigatus, AF293, MIC banded into grades, read-out: MIC grade, A. fumigatus
How it was run: as §1

Aspergillus terreus AT4 = assay: MIC, RPMI medium; assay type: cell-based; conditions: Aspergillus terreus, AT4, MIC banded into grades, read-out: MIC grade, A. terreus
How it was run: as §1

[3] = test system: Aspergillus fumigatus AF210; assay: MIC, RPMI medium; assay type: cell-based; conditions: Aspergillus fumigatus, AF210, MIC banded into grades, read-out: MIC grade, A. fumigatus 210
How it was run: as §1

A. fumigatus A1163 [4] = assay: Temporary (TI) neutropenic murine survival model of disseminated aspergillosis; assay type: in vivo, CD-1 mouse; conditions: for survival at day 18: TI model with prolonged observation; for survival at day 18 / survival benefit / survival: oral; for survival benefit / survival: TI survival model
Method: (§2) Methods: Temporary (TI) or persistently (PI) neutropenic CD-1 mouse models of disseminated aspergillus were used. 3 days post immunosuppression with cyclophosphamide (200 mg/kg ip) mice were infected IV with an LD90 challenge of A. fumigatus A1163. Treatment commenced 5 h post infection and animals were treated for 9 days and observed for either 2 days or 7 days following cessation of treatment. […] 2-(1,5-Dimethyl-3-phenyl-1H-pyrrol-2-yl)-N-{4-[4-(4,6-dimethyl-pyridin-2-yl)-piperazin-1-yl]-phenyl}-2-oxo-acetamide was dosed orally as a suspension in HPMC/Tween 80 once or twice daily. Caspofungin dosed IP was used as a comparator.

A. fumigatus A1163 [5] = assay: Persistently (PI) neutropenic murine survival model of disseminated aspergillosis; assay type: in vivo, CD-1 mouse; conditions: severe PI model, oral, 20 mg/kg BD
Method: as §2

[6] = Oral bio-availability and tissue distribution; conditions: in vivo

## Cc1cc(C)nc(N2CCN(c3ccc(NC(=O)C(=O)c4c(-c5ccccc5)cc(C)n4C)cc3)CC2)c1 [Example 1, 2-(1,5-Dimethyl-3-phenyl-1H-pyrrol-2-yl)-N-{4-[4-(4,6-dimethyl-pyridin-2-yl)-piperazin-1-yl]-phenyl}-2-oxo-acetamide]
[1]
  activity in vitro against Aspergillus and other filamentous fungi: excellent activity
Aspergillus terreus AT49
  MIC: < 1 µg/mL
Aspergillus niger
  MIC: < 1 µg/mL
Aspergillus flavus
  MIC: < 1 µg/mL
[2]
  MIC: < 1 µg/mL
Aspergillus terreus AT4
  MIC: < 1 µg/mL
[3]
  MIC: < 1 µg/mL
A. fumigatus A1163 [4]; 10 mg/kg BD
  survival at day 18: 80%
A. fumigatus A1163 [4]; 20 mg/kg OD
  survival at day 18: 70%
A. fumigatus A1163 [4]; 1.25 mg/kg per day
  survival benefit: little benefit
A. fumigatus A1163 [4]; 2.5 mg/kg per day
  survival benefit: little benefit
A. fumigatus A1163 [4]; 5 mg/kg per day
  survival: 80%
A. fumigatus A1163 [4]; 10 mg/kg/day
  survival: 90%
A. fumigatus A1163 [4]; 20 mg/kg/day
  survival: 100%
A. fumigatus A1163 [4]; 30 mg/kg/day
  survival: 100%
A. fumigatus A1163 [4]; 40 mg/kg/day
  survival: 100%
A. fumigatus A1163 [4]; in these models (TI and PI)
  efficacy compared with caspofungin (CAS) dosed IP: at least as effective as CAS
A. fumigatus A1163 [5]
  survival at day 12: 70%
[6]
  tissue distribution: good
[6]; po
  oral bio-availability: good
